Values after ≈ are worked out from the molar mass of the structure shown.
How the values were obtained:
Experiment in all cases: ≥ marks a high value that may be exact or a test limit, other limits are often not marked, values filed in µg/mL are converted to µM
[1] = test system: Bacillus subtilis ATCC 6633
[2] = test system: Staphylococcus aureus ATCC 6538
[3] = test system: Escherichia coli ATCC 8739
[4] = test system: Candida albicans ATCC 90028
[5] = test system: Staphylococcus aureus ATCC 43300
[6] = test system: Staphylococcus aureus ATCC 25923

SMILES	MIC [1]	MIC [2]	MIC [3]	MIC [4]	MIC [5]	MIC [6]
CC[C@H](C)[C@H](NC(=O)CN)C(=O)N[C@@H](Cc1ccccc1)C(=O)N[C@@H](CO)C(=O)N[C@@H](CC(C)C)C(=O)N[C@H](C(=O)N[C@@H](CCCCN)C(=O)NCC(=O)N[C@@H](C)C(=O)N[C@@H](C)C(=O)N[C@@H](CCCCN)C(=O)N[C@@H](CC(C)C)C(=O)N[C@H](C(=O)N[C@H](C(=O)N[C@@H](CCCCN)C(=O)N[C@H](C(=O)N[C@H](C(=O)N[C@@H](C)C(=O)N[C@@H](CCCCN)C(=O)N[C@@H](CCC(=O)O)C(=O)N[C@@H](C)C(=O)NCC(=O)N[C@@H](CCCCN)C(=O)N[C@H](C(=O)NCC(=O)N[C@@H](CC(C)C)C(=O)N[C@@H](CCC(=O)O)C(=O)N[C@@H](CC(C)C)C(=O)N[C@@H](CCSC)C(=O)N[C@@H](C)C(=O)N[C@H]1CSSC[C@@H](C(=O)O)NC(=O)[C@H](CCC(N)=O)NC(=O)[C@H](CC(N)=O)NC(=O)[C@H]([C@@H](C)O)NC(=O)[C@H](C(C)C)NC(=O)[C@H](CCCCN)NC1=O)[C@@H](C)O)C(C)C)[C@@H](C)O)[C@@H](C)O)[C@@H](C)CC)[C@@H](C)CC [GIFSLIKGAAKLITKTVAKEAGKTGLELMACKVTNQC]	6.3 µM (≈ 24.2 µg/mL)	3.1 µM (≈ 11.9 µg/mL)	12.5 µM (≈ 47.9 µg/mL)	≥ 100 µM	25 µM (≈ 95.9 µg/mL)	
CC[C@H](C)[C@H](NC(=O)[C@H](C)NC(=O)[C@@H](NC(=O)[C@H](CCCCN)NC(=O)[C@H](CCCCN)NC(=O)[C@H](Cc1cnc[nH]1)NC(=O)[C@@H](NC(=O)[C@H](CCCCN)NC(=O)[C@H](CS)NC(=O)[C@@H](NC(=O)[C@@H](NC(=O)[C@H](CCCN=C(N)N)NC(=O)[C@@H](NC(=O)[C@H](C)NC(=O)[C@H](CC(C)C)NC(=O)[C@H](CCCCN)NC(=O)[C@@H]1CCCN1)[C@@H](C)CC)[C@@H](C)CC)[C@@H](C)O)[C@@H](C)CC)C(C)C)C(=O)N[C@@H](CO)C(=O)N[C@H](C(=O)O)C(C)C [PKLAIRITCKIHKKVAISV]			30.2 µM (≈ 64 µg/mL)			121 µM (≈ 256 µg/mL)
CC[C@H](C)[C@H](NC(=O)[C@H](CCCCN)NC(=O)[C@H](CCCCN)NC(=O)[C@H](CCCCN)NC(=O)[C@@H](NC(=O)[C@H](CCCN=C(N)N)NC(=O)[C@@H](NC(=O)[C@H](CC(C)C)NC(=O)[C@H](CC(C)C)NC(=O)[C@H](CCCCN)NC(=O)[C@H](CCSC)NC(=O)[C@@H]1CCCN1)C(C)C)C(C)C)C(=O)NCC(=O)N[C@@H](CC(=O)O)C(=O)N[C@@H](C)C(=O)N[C@@H](CC(C)C)C(=O)N[C@@H](CCC(=O)O)C(=O)N[C@@H](CC(C)C)C(=O)NCC(=O)O [PMKLLVRVKKKIGDALELG]			≥ 60.7 µM			
